Experimental data reported in publication PMC11412156 (Journal of medicinal chemistry, 2024).
“And” between values parts separate entries of the source, which are not always exact repeats. Equal values may be shown once.

Assays:
[1] = test system: LPS-induced RAW264.7 cells; assay: Inflammatory factors and iNOS in LPS-induced RAW264.7 cells; format: cell-based
HDAC6 = target: T1, HDAC6 (Homo sapiens, UniProt Q9UBN7); assay: HDAC enzyme-based fluorogenic assay, HDAC6; format: biochemical; details: for HDAC6 inhibitor rate: final concentration of 2 μM, preliminary screen; for Selectivity Index HDAC1/HDAC6 / Selectivity Index HDAC2/HDAC6 / Selectivity Index HDAC3/HDAC6 / Selectivity Index HDAC8/HDAC6 / Selectivity Index HDAC11/HDAC6: ratio of IC50 values
T1 sequence (Q9UBN7 1-1215): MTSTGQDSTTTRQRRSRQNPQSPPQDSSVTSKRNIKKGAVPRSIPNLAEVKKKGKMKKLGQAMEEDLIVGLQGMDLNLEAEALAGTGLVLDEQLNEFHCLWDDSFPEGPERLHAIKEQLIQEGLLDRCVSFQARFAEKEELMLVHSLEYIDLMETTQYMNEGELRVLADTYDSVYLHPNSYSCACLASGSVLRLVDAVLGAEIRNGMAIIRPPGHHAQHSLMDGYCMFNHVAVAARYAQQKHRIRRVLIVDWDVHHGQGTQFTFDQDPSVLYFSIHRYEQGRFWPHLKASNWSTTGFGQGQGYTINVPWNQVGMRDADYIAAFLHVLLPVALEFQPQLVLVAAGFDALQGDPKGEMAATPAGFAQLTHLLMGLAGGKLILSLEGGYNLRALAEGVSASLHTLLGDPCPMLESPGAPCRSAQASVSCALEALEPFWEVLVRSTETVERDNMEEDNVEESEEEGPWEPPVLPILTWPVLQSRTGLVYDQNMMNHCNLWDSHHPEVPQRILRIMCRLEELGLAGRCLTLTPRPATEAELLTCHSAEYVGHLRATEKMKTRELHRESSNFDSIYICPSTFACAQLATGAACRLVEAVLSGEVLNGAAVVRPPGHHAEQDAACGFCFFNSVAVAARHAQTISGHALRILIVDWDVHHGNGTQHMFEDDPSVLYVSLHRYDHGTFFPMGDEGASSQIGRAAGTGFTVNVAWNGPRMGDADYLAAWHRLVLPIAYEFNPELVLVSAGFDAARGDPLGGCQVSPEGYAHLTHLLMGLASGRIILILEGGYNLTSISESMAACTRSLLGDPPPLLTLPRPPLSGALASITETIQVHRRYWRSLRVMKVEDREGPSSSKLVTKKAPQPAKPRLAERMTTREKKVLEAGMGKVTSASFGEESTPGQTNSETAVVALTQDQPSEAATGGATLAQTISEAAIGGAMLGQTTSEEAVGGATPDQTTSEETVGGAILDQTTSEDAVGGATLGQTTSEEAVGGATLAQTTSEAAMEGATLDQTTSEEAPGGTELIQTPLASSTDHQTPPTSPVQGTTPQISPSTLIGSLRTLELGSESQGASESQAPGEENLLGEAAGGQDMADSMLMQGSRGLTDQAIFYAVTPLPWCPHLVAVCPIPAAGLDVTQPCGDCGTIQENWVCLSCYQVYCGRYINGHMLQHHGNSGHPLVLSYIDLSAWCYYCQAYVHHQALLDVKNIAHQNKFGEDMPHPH

[2] = test system: xylene-induced ear swelling inflammation in mice; assay: Xylene-induced ear swelling inflammation model in mice; format: in vivo, Kunming mice; details: Table 7 dose study
HDAC2 = HDAC2 (Homo sapiens, UniProt Q92769); assay: HDAC enzyme-based fluorogenic assay, HDAC2; format: biochemical
[3] = test system: formalin-induced inflammatory pain in mice; assay: Formalin-induced inflammatory pain model in mice; format: in vivo, Kunming mice; details: for pain response, second phasic response: dose study, Figure 15, compared with the model group
[4] = test system: acetylation of α-tubulin and histone H3 in THP-1 cell; assay: Western blot of acetylation of α-tubulin and histone H3 in THP-1 cell; format: cell-based; details: 1 μM and 2 μM, 24 h
Acute toxicity test = details: in vivo

HDAC2, sequence (Q92769 whole entry): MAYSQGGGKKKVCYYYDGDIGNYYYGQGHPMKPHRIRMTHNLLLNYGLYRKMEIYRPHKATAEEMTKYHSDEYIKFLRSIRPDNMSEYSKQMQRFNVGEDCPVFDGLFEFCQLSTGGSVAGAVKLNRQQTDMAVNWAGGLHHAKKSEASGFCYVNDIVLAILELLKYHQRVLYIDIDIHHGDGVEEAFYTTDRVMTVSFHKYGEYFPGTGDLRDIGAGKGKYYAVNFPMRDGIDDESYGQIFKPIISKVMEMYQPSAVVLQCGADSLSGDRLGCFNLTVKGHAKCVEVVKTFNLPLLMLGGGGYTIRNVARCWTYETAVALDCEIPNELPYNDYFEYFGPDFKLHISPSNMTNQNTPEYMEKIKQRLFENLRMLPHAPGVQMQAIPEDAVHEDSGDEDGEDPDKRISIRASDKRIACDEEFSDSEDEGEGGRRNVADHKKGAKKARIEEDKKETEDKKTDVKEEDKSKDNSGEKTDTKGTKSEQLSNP

Row | SMILES | IC50 (HDAC6) [nM] | HDAC6 inhibitor rate (HDAC6) | Selectivity Index HDAC1/HDAC6 (HDAC6) | Selectivity Index HDAC2/HDAC6 (HDAC6) | Selectivity Index HDAC3/HDAC6 (HDAC6) | Selectivity Index HDAC8/HDAC6 (HDAC6) | Selectivity Index HDAC11/HDAC6 (HDAC6) | IC50 (HDAC2) [nM] | further results
1 | O=C(CCCCCCNC(=O)[C@H]1CCCN(C(=O)c2ccc(NC(=O)Nc3ccc(Cl)c(F)c3)c(F)c2)C1)NO [Compound 28g, (S)-1-(4-(3-(4-Chloro-3-fluorophenyl)ureido)-3-fluorobenzoyl)-N-(7-(hydroxyamino)-7-oxoheptyl)piperidine-3-carboxamide] | 8 | > 91% and 99.78% | 144 | 62 | 160 | 8 | 58 | 492 | levels of gene expression of iNOS ([1]; LPS-induced RAW264.7 cells, western blot): suppressed; levels of IL-6, IL-1β, TNF-α and NO ([1]; RAW264.7 cells preconditioned 1–100 µg/mL for 12 h, then LPS 1 µg/mL 12 h, ELISA): significantly reversed this change; Inhibition rate ([2]; 10 mg/kg by gavage for 7 days): 44.39%; Swelling degree ([2]; 10 mg/kg by gavage for 7 days): 8.7 ± 1.7 mg; Swelling rate ([2]; 10 mg/kg by gavage for 7 days): 69.39%; Inhibition rate ([2]; 30 mg/kg by gavage for 7 days): 67.17%; Swelling degree ([2]; 30 mg/kg by gavage for 7 days): 5.1 ± 0.9 mg; Swelling rate ([2]; 30 mg/kg by gavage for 7 days): 39.50%; pain response, second phasic response ([3]; 10 mg/kg): reduced the pain response; pain response, second phasic response ([3]; 30 mg/kg (high-dose)): significantly reduced the pain response; pain response time, first phasic response ([3]; mice, 30 mg/kg intraperitoneally, Figure 13): did not significantly reduce the pain response time; acetylation of histone H3 [4]: without affecting histone H3; acetylation of α-tubulin [4]: induced an increase in acetylation of α-tubulin; safety in acute toxicity test (Acute toxicity test): good safety
2 | O=C(CCCCCCNC(=O)[C@H]1CCCN(C(=O)c2ccc(NC(=O)Nc3cc(F)cc(F)c3)c(F)c2)C1)NO [Compound 28j, (S)-1-(4-(3-(3,5-Difluorophenyl)ureido)-3-fluorobenzoyl)-N-(7-(hydroxyamino)-7-oxoheptyl)piperidine-3-carboxamide] | 8 | > 91% and 98.92% | 129 | 134 | 327 | 9 | 132 | 1070 | 
